From patent US8993612B2, “Modulators of calcium release-activated calcium channel and methods for treatment of non-small cell lung cancer” (Rhizen Pharmaceuticals SA, priority 2009, dated 2015)
Counter-ions that a name gives are not always drawn.

Tests used:
CRAC channels = CRAC channels (Homo sapiens (Human), UniProt Q96D31); assay: In-vitro CRAC channel inhibition assay in Jurkat cells (thapsigargin-induced calcium influx); format: cell-based
Experimental: Inhibition of CRAC channels was determined following thapsigargin (Sigma, Cat # T9033) induced endoplasmic calcium release in Jurkat cells. (see Yasurio Yonetoky et. al Bio. & Med. Chem. 14 (2006) 4750-4760). Cells were centrifuged and resuspended in equal volumes ° f Ca^2+ and Mg^2+ free Hanks buffer and Fluo-8 NW dye (ABD Bioquest, Inc., Sunnyvale, Calif.) loading solution at 2×10^5 cells/100 μl/well in 96-well black plate. Plate is incubated at 37° C./5% CO2 for 30 mM followed by further 15 mM incubation at room temperature. Test compounds (DMSO stocks diluted in Ca^2+ and Mg^2+ free Hanks buffer) at desired concentrations were added to the wells and incubated for […]. Thapsigargin (1 μM final concentration) was added to the wells and incubated for 15 min to inhibit the Sarco-endoplasmic reticulum Ca^2+ ATPase pump thereby depleting endoplasmic calcium and raising cytosolic calcium concentrations. Store-operated calcium entry was initiated by adding extracellular Ca^2+ to a final concentration of 1.8 mM. Fluorescence was monitored over […] on a plate reader (BMG Labtech., Germany) with excitation at 485 nm and an emission wavelength at 520 nm. Data were analyzed using GraphPad Prism. IC50 for each compound was determined based on the percent inhibition of thapsigargin-induced calcium influx into cells.

NCI-H460 cells = assay: In-vitro cell proliferation assay in NCI-H460 cancer cell line (MTT); format: cell-based, human; settings: Homo sapiens; for inhibition at 10 µM: NCI-H460, 10 μM, 48 h; for IC50: NCI-H460, 48 h, read-out: NCI-H460 Cell line assay G1 50 nM
Experimental: Growth inhibition assays were carried out using 10% FBS supplemented media. Cells were seeded at a concentration of 5000 cells/well in a 96-well plate. Test compound at a concentration range from 0.01 to 10000 nM were added after 24 h. Growth was assessed using the 3-[4,5-dimethylthiazol-2-yl]-2,5-diphenyltetrazolium bromide (MTT) dye reduction test at 0 h (prior to the addition of the test compound) and 48 h after the addition of test compound. Absorbance was read on a Fluostar Optima (BMG Labtech, Germany) at a wave length of 450 nm. Data were analysed using GraphPad Prism. IC-50 for each compound was determined based on the % inhibition due to the test compound compared to the control.
For methods of cell proliferation assay, see, for example, Mosmann. T., Journal of Immunological Methods, 65(1-2), 55-63, (1983).
The effect of CRAC and/or STIM protein on the proliferation and viability of lung cancer cells was determined as follows.
For Methodology Refer 1C.

CRAC channels, sequence (Q96D31 whole entry): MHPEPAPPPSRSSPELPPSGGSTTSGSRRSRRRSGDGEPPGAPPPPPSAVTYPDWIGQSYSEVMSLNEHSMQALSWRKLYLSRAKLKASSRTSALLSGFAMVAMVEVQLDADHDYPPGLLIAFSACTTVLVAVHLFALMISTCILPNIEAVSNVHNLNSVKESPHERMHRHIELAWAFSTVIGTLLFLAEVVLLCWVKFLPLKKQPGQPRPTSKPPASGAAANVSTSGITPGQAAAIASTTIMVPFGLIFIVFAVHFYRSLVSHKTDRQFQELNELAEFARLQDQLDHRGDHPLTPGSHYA

| SMILES | inhibition at 1 µM (CRAC channels; 1 uM) | other results |
| --- | --- | --- |
| O=C(Nc1ccc(-n2nc(C3CC3)cc2C2CC2)cc1)c1ccc2nc[nH]c2c1 [Example 1, N-[4-(3,5-dicyclopropyl-1H-pyrazol-1-yl)phenyl]-1H-benzo[d]imidazole-6-carboxamide] | 57.6% |  |
| O=C(Cc1c[nH]c2ccccc12)Nc1ccc(-n2nc(C3CC3)cc2C2CC2)cc1 [Example 7, N-[4-(3,5-dicyclopropyl-1H-pyrazol-1-yl)phenyl]-2-(1H-indol-3-yl)acetamide] | 36.8% |  |
| O=C(Cc1cn2ccccc2n1)Nc1ccc(-n2nc(C3CC3)cc2C2CC2)cc1 [Example 8, N-[4-(3,5-dicyclopropyl-1H-pyrazol-1-yl)phenyl]-2-(imidazo[1,2-a]pyridin-2-yl)acetamide Hydrochloride] | 17.9% |  |
| O=C(Cn1nnc2ccccc21)Nc1ccc(-n2nc(C3CC3)cc2C2CC2)c(F)c1 [Example 11, 2-(1H-benzo[d][1,2,3]triazol-1-yl)-N-(4-(3,5-dicyclopropyl-1H-pyrazol-1-yl)-3-fluorophenyl)acetamide] | 78.6% |  |
| O=C(Cc1ccc2ncccc2c1)Nc1ccc(-n2nc(C3CC3)cc2C2CC2)c(F)c1 [Example 12, N-[4-(3,5-dicyclopropyl-1H-pyrazol-1-yl)-3-fluorophenyl]-2-(quinolin-6-yl)acetamide Hydrochloride] | 100% | inhibition at 10 µM (NCI-H460 cells): 90%; IC50 (NCI-H460 cells): 100 nM; IC50 (CRAC channels): 263 nM |
| O=C(Nc1ccc(-n2nc(C3CC3)cc2C2CC2)nc1)c1ccc2ncccc2c1 [Example 13, N-[6-(3,5-dicyclopropyl-1H-pyrazol-1-yl)pyridin-3-yl]quinoline-6-carboxamide Dihydrochloride] | 22.4% |  |
| O=C(Nc1ccc(-n2nc(C3CC3)cc2C2CC2)nc1)c1ccc2nccnc2c1 [Example 14, N-[6-(3,5-dicyclopropyl-1H-pyrazol-1-yl)pyridin-3-yl]quinoxaline-6-carboxamide] | 17.8% |  |
| O=C(Cn1nnc2ccccc21)Nc1ccc(-n2nc(C3CC3)cc2C2CC2)nc1 [Example 15, 2-(1H-benzo[d][1,2,3]triazol-1-yl)-N-[6-(3,5-dicyclopropyl-1H-pyrazol-1-yl)pyridin-3-yl]acetamide] | 3.93% |  |
| Cl.Cl.O=C(Cc1ccc2ncccc2c1)Nc1ccc(-n2nc(C3CC3)cc2C2CC2)nc1 [Example 16, N-[6-(3,5-dicyclopropyl-1H-pyrazol-1-yl)pyridin-3-yl]-2-(quinolin-6-yl)acetamidedihydrochloride] |  | % inhibition (1 uM) (CRAC channels; 1 uM): 30.81% |
| O=C(Nc1ccc(-n2nc(C(F)(F)F)cc2C2CC2)cc1)c1ccc2nccnc2c1 [Example 18, N-{4-[5-cyclopropyl-3-(trifluoromethyl)-1H-pyrazol-1-yl]phenyl}quinoxaline-6-carboxamide] | 96.6% | IC50 (CRAC channels): 53.4 nM |
| O=C(Cn1nc2ccccc2n1)Nc1ccc(-n2nc(C(F)(F)F)cc2C2CC2)cc1 [Example 21, 2-(2H-benzo[d][1,2,3]triazol-2-yl)-N-{4-[5-cyclopropyl-3-(trifluoromethyl)-1H-pyrazol-1-yl]phenyl}acetamide] | 83% | IC50 (CRAC channels): 139 nM |
| O=C(Cn1nnc2cccnc21)Nc1ccc(-n2nc(C(F)(F)F)cc2C2CC2)cc1 [Example 22, 2-(3H-[1,2,3]triazolo[4,5-b]pyridin-3-yl)-N-{4-[5-cyclopropyl-3-(trifluoromethyl)-1H-pyrazol-1-yl]phenyl}acetamide] | 30.9% |  |
| C[C@@H](C(=O)Nc1ccc(-n2nc(C(F)(F)F)cc2C2CC2)cc1)n1nnc2cccnc21 [Example 23, (S)-2-(3H-[1,2,3]triazolo[4,5-b]pyridin-3-yl)-N-{4-[5-cyclopropyl-3-(trifluoromethyl)-1H-pyrazol-1-yl]phenyl}propanamide] | 69.9% |  |
| Nc1ncnc2c1ncn2CC(=O)Nc1ccc(-n2nc(C(F)(F)F)cc2C2CC2)cc1 [Example 24, 2-(6-amino-9H-purin-9-yl)-N-{4-[5-cyclopropyl-3-(trifluoromethyl)-1H-pyrazol-1-yl]phenyl}acetamide] | 14.8% | inhibition at 10 µM (NCI-H460 cells): 84.4% |
| Cn1c(=O)c2c(ncn2CC(=O)Nc2ccc(-n3nc(C(F)(F)F)cc3C3CC3)cc2)n(C)c1=O [Example 25, N-(4-(5-cyclopropyl-3-(trifluoromethyl)-1H-pyrazol-1-yl)phenyl)-2-(1,3-dimethyl-2,6-dioxo-2,3-dihydro-1H-purin-7(6H)-yl)acetamide] | 39.1% |  |
| O=C(Cc1cn2ccccc2n1)Nc1ccc(-n2nc(C(F)(F)F)cc2C2CC2)cc1 [Example 26, N-{4-[5-cyclopropyl-3-(trifluoromethyl)-1H-pyrazol-1-yl)phenyl)-2-(imidazo[1,2-a]pyridin-2-yl)acetamide Hydrochloride] | 30.9% |  |
| CC(C(=O)Nc1ccc(-n2nc(C(F)(F)F)cc2C2CC2)cc1)c1ccc2ncccc2c1 (stereo not shown) [Example 28, N-{4-[5-cyclopropyl-3-(trifluoromethyl)-1H-pyrazol-1-yl]phenyl}-2-(quinolin-6-yl)propanamide Hydrochloride] | 0% |  |
| O=C(Nc1ccc(-n2nc(C(F)(F)F)cc2C2CC2)c(F)c1)c1ccc2nn[nH]c2c1 [Example 29, N-{4-[5-cyclopropyl-3-(trifluoromethyl)-1H-pyrazol-1-yl]-3-fluorophenyl}-1H-benzo[d][1,2,3]triazole-6-carboxamide] | 81.1% | inhibition at 10 µM (NCI-H460 cells): 100%; IC50 (NCI-H460 cells): 1520 nM |
| O=C(Cn1nnc2ccccc21)Nc1ccc(-n2nc(C(F)(F)F)cc2C2CC2)c(F)c1 [Example 30, 2-(1H-benzo[d][1,2,3]triazol-1-yl)-N-{4-[5-cyclopropyl-3-(trifluoromethyl)-1H-pyrazol-1-yl]-3-fluorophenyl}acetamide] | 100% | IC50 (CRAC channels): 160 nM |
| O=C(Nc1ccc(-n2nc(C(F)(F)F)cc2C2CC2)nc1)c1ccc2[nH]nnc2c1 [Example 31, N-{6-[5-cyclopropyl-3-(trifluoromethyl)-1H-pyrazol-1-yl]pyridin-3-yl}-1H-benzo[d][1,2,3]triazole-5-carboxamide] | 50.6% |  |
| O=C(Cn1nnc2ccccc21)Nc1ccc(-n2nc(C(F)(F)F)cc2C2CC2)nc1 [Example 32, 2-(1H-benzo[d][1,2,3]triazol-1-yl)-N-{6-[5-cyclopropyl-3-(trifluoromethyl)-1H-pyrazol-1-yl]pyridin-3-yl}acetamide] | 41.2% |  |
| O=C(Cn1nc2ccccc2n1)Nc1ccc(-n2nc(C(F)(F)F)cc2C2CC2)nc1 [Example 33, 2-(2H-benzo[d][1,2,3]triazol-2-yl)-N-{6-[5-cyclopropyl-3-(trifluoromethyl)-1H-pyrazol-1-yl]pyridin-3-yl}acetamide] | 49.5% |  |
| O=C(Cc1ccc2ncccc2c1)Nc1ccc(-n2nc(C(F)(F)F)cc2C2CC2)nc1 [Example 34, N-{6-[5-cyclopropyl-3-(trifluoromethyl)-1H-pyrazol-1-yl]pyridin-3-yl}-2-(quinolin-6-yl)acetamide hydrochloride] | 51.2% | inhibition at 10 µM (NCI-H460 cells): 82.7%; IC50 (NCI-H460 cells): 628 nM |
| O=C(Cn1nnc2ccccc21)Nc1ccc(-n2nc(C(F)(F)F)c(Cl)c2C2CC2)nc1 [Example 35, 2-(1H-benzo[d][1,2,3]triazol-1-yl)-N-{6-[4-chloro-5-cyclopropyl-3-(trifluoromethyl)-1H-pyrazol-1-yl]pyridin-3-yl}acetamide] | 15% |  |
| O=C(NCc1ccc2ncccc2c1)c1ccc(-n2nc(C(F)(F)F)cc2C2CC2)c(F)c1 [Example 36, 4-[5-cyclopropyl-3-(trifluoromethyl)-1H-pyrazol-1-yl]-3-fluoro-N-(quinolin-6-ylmethyl)benzamide hydrochloride] | 51% |  |
| O=C(Nc1ccc(-n2nc(C3CC3)cc2C2CC2)cc1)Nc1ccc2ncccc2c1 [Example 37, 1-[4-(3,5-dicyclopropyl-1H-pyrazol-1-yl)phenyl]-3-(quinolin-6-yl)urea] | 57.3% |  |
